Calls of active or inactive are those of the source.
Tests used:
Streptokinase A = target: T1, Streptokinase A (Streptococcus pyogenes serotype M1, UniProt P10520); assay: viability-normalized secreted streptokinase activity reduction – plasminogen activation absorbance, OD405, dose response (AID 1914); type: functional, Streptococcus pyogenes M1 GAS;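 further: secreted streptokinase activity via plasminogen activation per viability signal from cell pellet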
T1 sequence (P10520 whole entry): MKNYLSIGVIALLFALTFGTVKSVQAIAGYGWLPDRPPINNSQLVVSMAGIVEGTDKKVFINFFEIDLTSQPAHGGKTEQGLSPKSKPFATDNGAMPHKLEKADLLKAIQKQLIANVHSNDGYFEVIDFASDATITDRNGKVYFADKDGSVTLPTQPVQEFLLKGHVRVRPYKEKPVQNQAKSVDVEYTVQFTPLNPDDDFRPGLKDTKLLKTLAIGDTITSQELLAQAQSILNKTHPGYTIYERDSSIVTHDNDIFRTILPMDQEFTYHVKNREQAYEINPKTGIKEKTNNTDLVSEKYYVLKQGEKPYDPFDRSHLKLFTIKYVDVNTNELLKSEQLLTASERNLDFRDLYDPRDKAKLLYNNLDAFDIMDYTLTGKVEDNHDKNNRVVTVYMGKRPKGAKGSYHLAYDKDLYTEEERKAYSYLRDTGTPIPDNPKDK

Cannabinoid receptor 1 [1] = target: T2, Cannabinoid receptor 1 (Homo sapiens, UniProt P21554); assay: SAR analysis of antagonists of the Cannabinoid Receptor 1 using an Image-Based Assay - Set 2. [Related pubchem assays (depositor defined):AID2013, AID2026]; type: functional
T2 sequence (P21554 whole entry): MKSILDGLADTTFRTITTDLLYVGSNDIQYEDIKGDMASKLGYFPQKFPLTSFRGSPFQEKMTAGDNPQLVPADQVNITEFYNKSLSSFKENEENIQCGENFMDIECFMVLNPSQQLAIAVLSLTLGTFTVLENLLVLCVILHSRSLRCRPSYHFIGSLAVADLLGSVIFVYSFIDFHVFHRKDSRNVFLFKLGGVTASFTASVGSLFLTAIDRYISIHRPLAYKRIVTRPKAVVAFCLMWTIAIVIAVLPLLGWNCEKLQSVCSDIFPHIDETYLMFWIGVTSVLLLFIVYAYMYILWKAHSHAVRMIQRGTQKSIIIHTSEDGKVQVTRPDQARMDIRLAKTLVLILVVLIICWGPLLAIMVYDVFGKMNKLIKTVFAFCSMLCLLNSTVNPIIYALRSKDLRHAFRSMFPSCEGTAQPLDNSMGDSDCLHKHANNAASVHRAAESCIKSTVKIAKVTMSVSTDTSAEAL

[2] = target: T3, G-protein coupled receptor 35 (Homo sapiens, UniProt Q9HC97); assay: SAR analysis of Antagonists of the GPR35 Receptor using an Image-Based Assay - Set 3. [Related pubchem assays (depositor defined):AID2013, AID2026]; type: functional
T3 sequence (Q9HC97 whole entry): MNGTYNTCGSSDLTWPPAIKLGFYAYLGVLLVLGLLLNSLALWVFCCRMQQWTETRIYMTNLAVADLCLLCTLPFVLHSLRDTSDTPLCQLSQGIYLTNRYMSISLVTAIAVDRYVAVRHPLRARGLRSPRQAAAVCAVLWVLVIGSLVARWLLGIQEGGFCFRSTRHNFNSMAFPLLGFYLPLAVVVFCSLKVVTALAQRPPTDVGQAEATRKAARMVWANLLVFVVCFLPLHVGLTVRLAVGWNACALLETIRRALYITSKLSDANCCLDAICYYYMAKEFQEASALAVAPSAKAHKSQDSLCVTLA

[3] = target: T4, G-protein coupled receptor 55 (Homo sapiens, UniProt Q9Y2T6); assay: blockade of LPI-induced GPR55 arrestin translocation – imaging, U2OS, beta-arrestin-GFP, LPI agonist, set 2, SAR follow-up (AID 2820); type: functional
T4 sequence (Q9Y2T6 whole entry): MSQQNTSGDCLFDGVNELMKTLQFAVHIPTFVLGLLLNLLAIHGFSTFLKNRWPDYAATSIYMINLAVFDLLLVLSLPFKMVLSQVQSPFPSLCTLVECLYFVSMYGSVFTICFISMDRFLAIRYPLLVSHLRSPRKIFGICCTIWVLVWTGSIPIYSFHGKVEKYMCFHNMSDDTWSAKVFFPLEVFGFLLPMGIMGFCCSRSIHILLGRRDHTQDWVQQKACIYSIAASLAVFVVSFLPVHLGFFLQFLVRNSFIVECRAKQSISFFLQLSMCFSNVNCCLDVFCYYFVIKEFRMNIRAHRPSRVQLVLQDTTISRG

[4] = target: T3, G-protein coupled receptor 35; assay: SAR analysis of Agonists of the GPR35 Receptor using an Image-Based Assay - Set 2. [Related pubchem assays (depositor defined):AID2013, AID2026]; type: functional
[5] = target: T4, G-protein coupled receptor 55; assay: inhibition of LPI-stimulated GPR55 beta-arrestin translocation – imaging, U2OS, beta-arrestin-GFP, LPI agonist, primary screen (AID 2013); type: functional;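 further: antagonist potency measured as reduced agonist-driven arrestin aggregation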
Cannabinoid receptor 1 [6] = target: T2, Cannabinoid receptor 1; assay: SAR analysis of agonists of the Cannabinoid Receptor 1 using an Image-Based Assay - Set 2. [Related pubchem assays (depositor defined):AID2013, AID2026]; type: functional
Cannabinoid receptor 2 [7] = target: T5, Cannabinoid receptor 2 (Homo sapiens, UniProt P34972); assay: SAR analysis of antagonists of the Cannabinoid Receptor 2 using an Image-Based Assay. [Related pubchem assays (depositor defined):AID2013, AID2026]; type: functional
T5 sequence (P34972 whole entry): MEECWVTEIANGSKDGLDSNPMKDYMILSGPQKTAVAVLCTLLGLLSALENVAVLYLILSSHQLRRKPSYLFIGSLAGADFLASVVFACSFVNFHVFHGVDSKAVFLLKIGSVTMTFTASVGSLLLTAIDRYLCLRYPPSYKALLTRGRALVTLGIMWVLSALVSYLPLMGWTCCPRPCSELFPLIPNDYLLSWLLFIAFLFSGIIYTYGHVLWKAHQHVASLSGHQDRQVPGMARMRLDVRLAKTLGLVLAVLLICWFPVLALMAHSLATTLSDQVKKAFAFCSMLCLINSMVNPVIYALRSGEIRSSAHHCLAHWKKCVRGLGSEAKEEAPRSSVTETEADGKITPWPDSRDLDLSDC

Cannabinoid receptor 2 [8] = target: T5, Cannabinoid receptor 2; assay: SAR analysis of agonists of the Cannabinoid Receptor 2 using an Image-Based Assay. [Related pubchem assays (depositor defined):AID2013, AID2026]; type: functional
Streptococcus = assay: GAS UMAA2166 growth inhibition – luminescence, BacTiterGlo, counter-screen for streptokinase expression inhibitor project, dose response (AID 1915); type: functional, organism-based;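 further: potency for reduction of bacterial viability or growth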
[9] = target: T6, Short transient receptor potential channel 4 (Mus musculus, UniProt Q9QUQ5); assay: block of DAMGO-driven TRPC4 calcium entry – cell-based, HEK293 TRPC4/mu-opioid, Fluo-4 calcium, dose response (AID 434942); type: functional;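 further: potency of inhibitors blocking the TRPC4 calcium response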
T6 sequence (Q9QUQ5 whole entry): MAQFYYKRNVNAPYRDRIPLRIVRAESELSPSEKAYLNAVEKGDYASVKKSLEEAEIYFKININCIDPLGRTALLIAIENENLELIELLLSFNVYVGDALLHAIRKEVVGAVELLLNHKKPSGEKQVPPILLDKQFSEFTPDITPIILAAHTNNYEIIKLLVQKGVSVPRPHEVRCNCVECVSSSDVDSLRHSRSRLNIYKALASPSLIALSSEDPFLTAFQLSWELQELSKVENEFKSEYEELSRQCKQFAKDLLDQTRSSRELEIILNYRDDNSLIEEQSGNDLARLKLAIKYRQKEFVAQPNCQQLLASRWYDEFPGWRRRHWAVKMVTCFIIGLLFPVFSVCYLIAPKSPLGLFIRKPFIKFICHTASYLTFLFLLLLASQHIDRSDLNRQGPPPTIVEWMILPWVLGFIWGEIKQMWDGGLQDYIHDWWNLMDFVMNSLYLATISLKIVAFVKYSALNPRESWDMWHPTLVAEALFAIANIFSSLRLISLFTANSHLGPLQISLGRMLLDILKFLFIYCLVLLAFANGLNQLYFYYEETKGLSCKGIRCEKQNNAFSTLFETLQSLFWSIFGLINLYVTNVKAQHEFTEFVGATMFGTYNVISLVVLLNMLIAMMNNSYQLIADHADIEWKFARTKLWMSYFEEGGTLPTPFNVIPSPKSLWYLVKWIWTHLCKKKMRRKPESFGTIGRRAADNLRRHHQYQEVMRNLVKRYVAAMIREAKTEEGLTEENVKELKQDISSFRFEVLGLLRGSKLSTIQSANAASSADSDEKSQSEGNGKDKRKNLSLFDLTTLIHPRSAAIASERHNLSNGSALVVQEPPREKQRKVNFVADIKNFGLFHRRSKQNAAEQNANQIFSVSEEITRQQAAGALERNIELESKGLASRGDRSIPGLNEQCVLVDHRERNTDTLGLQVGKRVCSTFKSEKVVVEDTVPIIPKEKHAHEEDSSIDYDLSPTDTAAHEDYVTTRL

[10] = test system: Streptococcus sp. 'group A'; assay: Streptococcus pyogenes SK(-)GAS viability under kanamycin – luminescence, BacTiterGlo, confirmation, counter-screen for streptokinase expression inhibitor project, dose response (AID 1900); type: functional, organism-based
[11] = target: Nucleotide-binding oligomerization domain-containing protein 1 (Homo sapiens, UniProt Q9Y239); assay: blockers of NOD1 pathway activity – revised, SAR follow-up (AID 2333); type: functional
Nucleotide-binding oligomerization domain-containing protein 1, sequence (Q9Y239 whole entry, the tested form may be a part): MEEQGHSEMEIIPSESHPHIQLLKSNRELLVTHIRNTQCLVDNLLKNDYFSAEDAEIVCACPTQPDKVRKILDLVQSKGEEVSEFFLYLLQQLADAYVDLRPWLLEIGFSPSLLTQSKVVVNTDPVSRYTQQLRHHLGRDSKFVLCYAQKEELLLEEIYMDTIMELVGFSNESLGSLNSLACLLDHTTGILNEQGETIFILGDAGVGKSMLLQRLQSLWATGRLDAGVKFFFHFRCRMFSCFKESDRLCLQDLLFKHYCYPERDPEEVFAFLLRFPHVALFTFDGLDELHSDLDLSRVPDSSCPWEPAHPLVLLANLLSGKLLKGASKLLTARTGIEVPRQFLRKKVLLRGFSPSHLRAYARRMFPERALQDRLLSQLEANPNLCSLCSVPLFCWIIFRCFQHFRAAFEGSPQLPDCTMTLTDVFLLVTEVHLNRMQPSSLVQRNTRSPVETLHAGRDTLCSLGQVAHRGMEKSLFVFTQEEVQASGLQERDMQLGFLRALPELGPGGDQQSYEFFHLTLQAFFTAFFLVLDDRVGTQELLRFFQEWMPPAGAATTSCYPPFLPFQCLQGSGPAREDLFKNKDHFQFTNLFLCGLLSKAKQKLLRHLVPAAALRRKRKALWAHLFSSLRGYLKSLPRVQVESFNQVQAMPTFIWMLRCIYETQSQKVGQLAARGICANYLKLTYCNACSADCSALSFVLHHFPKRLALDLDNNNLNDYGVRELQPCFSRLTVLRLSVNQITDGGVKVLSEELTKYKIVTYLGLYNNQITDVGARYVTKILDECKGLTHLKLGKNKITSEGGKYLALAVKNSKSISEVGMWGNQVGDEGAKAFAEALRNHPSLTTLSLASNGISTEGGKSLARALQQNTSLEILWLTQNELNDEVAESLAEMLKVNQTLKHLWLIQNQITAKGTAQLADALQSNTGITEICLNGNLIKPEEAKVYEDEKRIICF

HEK293 = assay: cells; conditions: Homo sapiens;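 further: cells exposed to compound for 14 hours overnight before viability readout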
Tumor necrosis factor = Tumor necrosis factor (Homo sapiens, UniProt P01375); assay: analog potency on TNFa NF-kB signaling – cell-based, revised, SAR follow-up (AID 2337); type: functional
Tumor necrosis factor, sequence (P01375 whole entry): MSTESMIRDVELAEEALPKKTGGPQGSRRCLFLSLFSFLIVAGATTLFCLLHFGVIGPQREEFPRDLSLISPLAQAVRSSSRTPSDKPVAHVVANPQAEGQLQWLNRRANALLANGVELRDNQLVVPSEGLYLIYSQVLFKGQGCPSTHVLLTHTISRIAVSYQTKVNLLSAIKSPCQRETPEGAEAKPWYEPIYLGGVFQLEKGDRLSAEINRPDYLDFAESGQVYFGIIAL

Keap1/Nrf2 = Keap1/Nrf2 (Homo sapiens, UniProt Q14145); assay: disruptors of Keap1 binding to Nrf2 peptide – biochemical, fluorescence polarization, cherry-picked samples, dose response (AID 588683)
Keap1/Nrf2, sequence (Q16236 whole entry): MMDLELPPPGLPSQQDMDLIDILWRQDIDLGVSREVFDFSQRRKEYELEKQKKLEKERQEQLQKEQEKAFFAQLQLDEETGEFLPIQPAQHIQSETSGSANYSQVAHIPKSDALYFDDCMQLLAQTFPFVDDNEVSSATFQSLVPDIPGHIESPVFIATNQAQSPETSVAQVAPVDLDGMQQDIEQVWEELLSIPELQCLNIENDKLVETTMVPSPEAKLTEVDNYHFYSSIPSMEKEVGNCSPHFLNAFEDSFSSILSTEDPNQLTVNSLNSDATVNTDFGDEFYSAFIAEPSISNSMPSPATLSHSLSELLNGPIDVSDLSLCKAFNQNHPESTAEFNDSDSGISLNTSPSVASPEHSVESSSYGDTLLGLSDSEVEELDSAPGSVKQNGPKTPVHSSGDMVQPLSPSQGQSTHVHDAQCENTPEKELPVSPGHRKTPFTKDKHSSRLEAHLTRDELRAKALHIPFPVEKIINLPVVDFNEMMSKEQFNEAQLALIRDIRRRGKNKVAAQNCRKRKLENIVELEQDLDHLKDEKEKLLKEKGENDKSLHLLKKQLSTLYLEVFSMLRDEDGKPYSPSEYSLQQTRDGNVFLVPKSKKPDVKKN
Keap1/Nrf2, sequence (Q14145 whole entry): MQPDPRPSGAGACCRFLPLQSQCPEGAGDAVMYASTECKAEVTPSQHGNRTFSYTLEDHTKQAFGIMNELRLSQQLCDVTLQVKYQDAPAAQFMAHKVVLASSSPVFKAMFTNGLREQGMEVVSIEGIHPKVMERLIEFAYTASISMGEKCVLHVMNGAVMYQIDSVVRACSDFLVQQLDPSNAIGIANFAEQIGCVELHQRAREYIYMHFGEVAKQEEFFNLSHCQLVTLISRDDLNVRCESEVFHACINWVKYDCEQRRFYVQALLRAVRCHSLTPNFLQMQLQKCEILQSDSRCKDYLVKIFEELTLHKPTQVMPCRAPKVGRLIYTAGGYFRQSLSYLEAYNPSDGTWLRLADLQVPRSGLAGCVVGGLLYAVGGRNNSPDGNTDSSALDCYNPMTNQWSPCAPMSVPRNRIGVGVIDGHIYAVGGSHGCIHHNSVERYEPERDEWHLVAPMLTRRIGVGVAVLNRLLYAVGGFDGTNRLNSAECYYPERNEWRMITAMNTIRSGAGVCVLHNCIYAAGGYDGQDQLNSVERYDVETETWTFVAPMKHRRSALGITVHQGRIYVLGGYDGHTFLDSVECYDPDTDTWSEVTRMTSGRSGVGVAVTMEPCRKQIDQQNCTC

In the case of COc1ccc(NC(=O)c2cnn3c(O)cc(C4CCN(C(=O)OC(C)(C)C)CC4)nc23)cc1Cl, the EC50 (Streptokinase A) was > 150 µM (not active), the IC50 (Cannabinoid receptor 1 [1]) was > 32 µM (inactive) and the IC50 [2] was 29.4 µM (inactive). The IC50 [3] was 0.422 µM (active), the EC50 [4] was 0.506 µM (active) and the IC50 [5] was < 0.5 µM (active). For the same compound, the EC50 (Cannabinoid receptor 1 [6]) was > 32 µM (inactive), the IC50 (Cannabinoid receptor 2 [7]) was > 32 µM (inactive) and the EC50 (Cannabinoid receptor 2 [8]) was > 32 µM (inactive). The EC50 (Streptococcus) was 17.8 µM (active), the EC50 [9] was 1.33 µM (active) and the EC50 [10] was 3.36 µM (active).

For COc1ccc(N2CCN(S(=O)(=O)c3ccc4c(c3)CC(C)N4C(=O)C3CC3)CC2)cc1 (stereo unspecified), the IC50 [11] was 0.506 µM (active), the IC50 (HEK293) was > 20 µM (inactive) and the IC50 (Tumor necrosis factor) was 3.85 µM (active).

Cc1cc[n+](-c2[n-]c(=O)sc2C=NNC(=S)Nc2ccccc2)cc1C was tested, and the AC50 (Keap1/Nrf2) was > 52 µM (inactive).

— ChEMBL document CHEMBL1201862, “PubChem BioAssay data set” (2004)
